Laboratory results reported in paper PMC10578023 (Cell Communication and Signaling : CCS, 2023).

Assays:
JAK2 (JH1) = JAK2 (JH1) (Homo sapiens, UniProt O60674); assay: JH1 kinase assay, HTRF KinEASE-TK; format: biochemical
Protocol: (§1) We measured the ability of a compound to bind to JAK1/2/3 and the TYK2 JH1 domain by using HTRF® KinEASE™-TK kits (Millipore, Bedford, MA, USA). JAK1/2/3 and the TYK2 JH1 domain in assay buffer were added to various concentrations of QL-1200186 and incubated for 15 min at RT. Then, the plate was incubated with the biotin-labeled TK substrate and adenosine triphosphate for 45 min at RT. Next, SA-XL665 and TK antibody-Eu3 were added to the detection buffer and incubated for 1 h at RT. The HTRF signal was measured on a plate reader (Envision).

TYK2 JH1 domain = target: T1, TYK2 JH1 domain (Homo sapiens, UniProt P29597); assay: JH1 kinase assay, HTRF KinEASE-TK; format: biochemical
T1 construct: JAK1/2/3 and the TYK2 JH1 domain in assay buffer were added
T1 sequence (P29597 897-1176 limits assumed): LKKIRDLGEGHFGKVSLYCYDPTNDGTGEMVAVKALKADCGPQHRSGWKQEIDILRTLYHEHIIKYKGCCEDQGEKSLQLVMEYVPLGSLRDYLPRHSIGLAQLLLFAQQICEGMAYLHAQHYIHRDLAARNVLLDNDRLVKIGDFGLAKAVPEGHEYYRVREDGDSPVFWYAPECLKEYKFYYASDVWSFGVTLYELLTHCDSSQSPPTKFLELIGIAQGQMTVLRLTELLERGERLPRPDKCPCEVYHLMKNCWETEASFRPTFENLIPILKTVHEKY
Protocol: as §1

JAK3 (JH1) = JAK3 (JH1) (Homo sapiens, UniProt P52333); assay: JH1 kinase assay, HTRF KinEASE-TK; format: biochemical
JAK3 (JH1), sequence (P52333 822-1111 limits assumed): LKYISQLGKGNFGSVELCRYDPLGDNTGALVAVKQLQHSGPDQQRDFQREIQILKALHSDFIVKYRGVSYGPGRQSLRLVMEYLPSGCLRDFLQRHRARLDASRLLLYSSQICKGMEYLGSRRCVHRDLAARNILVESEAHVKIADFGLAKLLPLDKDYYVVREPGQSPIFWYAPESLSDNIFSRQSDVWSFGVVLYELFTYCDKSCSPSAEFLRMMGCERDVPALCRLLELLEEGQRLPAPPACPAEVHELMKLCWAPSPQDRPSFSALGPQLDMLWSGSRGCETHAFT
Protocol: as §1

TYK2 = target: T2, TYK2 (Homo sapiens, UniProt P29597); assay: IFNα-stimulated TYK2 phosphorylation in Jurkat cells, western blot; format: cell-based; conditions: IFNα 1000 U/mL
T2 construct: host or cells: Jurkat cells
T2 sequence (P29597 whole entry): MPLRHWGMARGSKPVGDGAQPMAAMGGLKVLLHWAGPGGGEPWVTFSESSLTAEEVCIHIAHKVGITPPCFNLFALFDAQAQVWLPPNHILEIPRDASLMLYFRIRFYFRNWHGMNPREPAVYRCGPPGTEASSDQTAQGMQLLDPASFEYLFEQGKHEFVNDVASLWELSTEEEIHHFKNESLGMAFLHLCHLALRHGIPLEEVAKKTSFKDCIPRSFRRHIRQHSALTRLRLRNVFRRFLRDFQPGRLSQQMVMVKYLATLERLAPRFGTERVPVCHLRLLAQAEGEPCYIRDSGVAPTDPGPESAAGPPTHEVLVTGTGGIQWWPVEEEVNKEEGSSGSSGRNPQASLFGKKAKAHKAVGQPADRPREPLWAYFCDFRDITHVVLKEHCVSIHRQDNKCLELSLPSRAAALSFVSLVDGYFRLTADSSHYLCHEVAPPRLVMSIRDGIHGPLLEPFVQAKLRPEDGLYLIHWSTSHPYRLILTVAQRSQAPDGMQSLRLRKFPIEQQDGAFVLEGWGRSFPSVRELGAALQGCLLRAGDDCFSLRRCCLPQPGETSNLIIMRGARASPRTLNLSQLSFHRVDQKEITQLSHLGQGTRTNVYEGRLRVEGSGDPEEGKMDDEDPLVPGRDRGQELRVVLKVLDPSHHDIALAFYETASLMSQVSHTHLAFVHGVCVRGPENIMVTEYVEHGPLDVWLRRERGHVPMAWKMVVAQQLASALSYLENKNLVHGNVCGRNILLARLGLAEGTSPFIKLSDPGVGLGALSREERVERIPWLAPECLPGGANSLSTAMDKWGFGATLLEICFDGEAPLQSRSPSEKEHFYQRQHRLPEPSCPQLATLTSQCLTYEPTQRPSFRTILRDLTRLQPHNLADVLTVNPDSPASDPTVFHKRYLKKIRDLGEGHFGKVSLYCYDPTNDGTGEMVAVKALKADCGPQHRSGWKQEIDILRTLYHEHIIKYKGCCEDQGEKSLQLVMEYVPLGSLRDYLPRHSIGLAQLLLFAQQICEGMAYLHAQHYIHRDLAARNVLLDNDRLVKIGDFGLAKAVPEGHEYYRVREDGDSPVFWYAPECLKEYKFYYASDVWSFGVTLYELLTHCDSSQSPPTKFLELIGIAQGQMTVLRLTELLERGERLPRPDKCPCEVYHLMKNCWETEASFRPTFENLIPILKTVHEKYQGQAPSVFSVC
From the text: Then, the phosphorylation of Tyr-1054 and Tyr-1055 in Jurkat cells (Cobioer Biosciences: CBP61444) was detected by western blotting to determine the inhibitory effect of QL-1200186 on TYK2 receptor-mediated activation.

CYP450 2C19 = CYP450 2C19 (Homo sapiens, UniProt P33261); assay: CYP inhibition assay; format: in vitro ADME
CYP450 2C19, sequence (P33261 whole entry): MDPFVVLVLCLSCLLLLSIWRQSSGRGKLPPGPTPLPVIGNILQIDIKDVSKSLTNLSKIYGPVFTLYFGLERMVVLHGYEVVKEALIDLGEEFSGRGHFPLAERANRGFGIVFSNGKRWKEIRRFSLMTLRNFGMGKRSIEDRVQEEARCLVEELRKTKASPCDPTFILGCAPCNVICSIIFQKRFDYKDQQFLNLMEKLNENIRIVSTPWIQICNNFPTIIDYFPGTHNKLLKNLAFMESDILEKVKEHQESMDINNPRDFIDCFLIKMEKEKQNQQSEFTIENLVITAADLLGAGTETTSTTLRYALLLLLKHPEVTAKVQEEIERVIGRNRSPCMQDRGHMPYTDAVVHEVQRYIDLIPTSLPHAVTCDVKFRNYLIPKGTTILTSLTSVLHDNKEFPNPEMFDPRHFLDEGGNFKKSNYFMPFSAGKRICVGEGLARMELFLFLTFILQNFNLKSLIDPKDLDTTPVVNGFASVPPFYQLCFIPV
Protocol: (§2) The ADME properties of QL-1200186 in vitro were measured by the following assays: Caco-2 permeability assay, CYP inhibition assay, protein binding assay, and liver microsome assay. Each assay was performed as previously described.

CYP450 2C9 = CYP450 2C9 (Homo sapiens, UniProt P11712); assay: CYP inhibition assay; format: in vitro ADME
CYP450 2C9, sequence (P11712 whole entry): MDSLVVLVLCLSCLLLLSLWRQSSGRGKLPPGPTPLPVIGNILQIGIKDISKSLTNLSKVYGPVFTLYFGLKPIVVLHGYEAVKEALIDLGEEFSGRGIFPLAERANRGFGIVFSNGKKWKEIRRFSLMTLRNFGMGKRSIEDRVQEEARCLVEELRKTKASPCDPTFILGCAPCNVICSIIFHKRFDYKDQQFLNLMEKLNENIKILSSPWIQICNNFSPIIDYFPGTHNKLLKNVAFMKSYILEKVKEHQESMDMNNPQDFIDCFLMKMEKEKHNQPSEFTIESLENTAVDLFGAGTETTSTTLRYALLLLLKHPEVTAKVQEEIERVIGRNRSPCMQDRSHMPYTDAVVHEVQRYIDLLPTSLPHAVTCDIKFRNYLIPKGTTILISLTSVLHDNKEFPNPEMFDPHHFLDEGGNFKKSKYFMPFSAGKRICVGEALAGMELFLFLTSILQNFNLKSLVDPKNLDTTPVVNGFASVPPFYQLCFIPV
Protocol: as §2

CYP450 2D6 = CYP450 2D6 (Homo sapiens, UniProt P10635); assay: CYP inhibition assay; format: in vitro ADME
CYP450 2D6, sequence (P10635 whole entry): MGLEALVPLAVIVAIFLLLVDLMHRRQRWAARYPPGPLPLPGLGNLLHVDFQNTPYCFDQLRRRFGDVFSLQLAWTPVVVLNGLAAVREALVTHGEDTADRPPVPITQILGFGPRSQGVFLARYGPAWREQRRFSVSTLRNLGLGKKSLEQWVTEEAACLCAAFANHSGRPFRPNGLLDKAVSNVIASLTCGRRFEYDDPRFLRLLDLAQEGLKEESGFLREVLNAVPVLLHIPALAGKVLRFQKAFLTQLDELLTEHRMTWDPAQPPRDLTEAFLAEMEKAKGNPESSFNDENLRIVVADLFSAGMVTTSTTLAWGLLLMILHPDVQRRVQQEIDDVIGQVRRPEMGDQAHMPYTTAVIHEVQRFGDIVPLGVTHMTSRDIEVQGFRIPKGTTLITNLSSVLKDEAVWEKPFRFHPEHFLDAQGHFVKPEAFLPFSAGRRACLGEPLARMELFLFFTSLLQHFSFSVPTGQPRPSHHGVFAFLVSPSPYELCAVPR
Protocol: as §2

CYP450 3A4/5 = assay: CYP inhibition assay; format: in vitro ADME
Protocol: as §2

[1] = test system: imiquimod-induced psoriasis-like skin inflammation; assay: Imiquimod-induced mouse model of psoriasis (PASI); format: in vivo, mice
Protocol: Healthy male BALB/c mice (18–20 g) were divided randomly into three groups of eight according to body weight using Excel™ (Office™; Microsoft). After 1 week of adaptive feeding, mice received a daily topical dose of 62.5 mg of 5% imiquimod cream ([…]; Aldara®; 3 M Pharmaceuticals, Maplewood, MN, USA) on the shaved back and left ear for 7 consecutive days. Control mice were treated similarly with vehicle cream (Vaseline lanette creme; Fagron, Amsterdam, the Netherlands). Mice in the treatment group were given QL-1200186 (5 mg/kg or 1 mg/kg) orally twice a day (p.o., b.i.d.).
The Psoriasis Area and Severity Index (PASI) consists of erythema, scaling and skin thickness measurements. Mice were evaluated from day 1 when imiquimod was given for 7 consecutive days. The thickness of the mouse skin was measured using a micrometer. The PK parameters were also measured.

JAK2/JAK2 = assay: TPO-stimulated pSTAT3/STAT5 in platelets of human whole blood; format: cell-based
Protocol: Stimulation was terminated by adding Lyse/Fix buffer. Staining with BUV786 mouse anti-human CD61 antibody (744384; BD Biosciences) was carried out, followed by washing, permeabilization and staining with PE mouse anti-human STAT3 antibody (651004; BD Biosciences) and APC mouse anti-human STAT5 antibody (562076; BD Biosciences), as described above. The expression of p-STAT3 and STAT5 was quantified by the MFI after the number of CD61-positive platelets was optimized.

JAK1 JH2 domain = JAK1 JH2 domain (Homo sapiens, UniProt P23458); assay: JAK1 JH2 binding assay
JAK1 JH2 domain, sequence (P23458 583-855 limits assumed): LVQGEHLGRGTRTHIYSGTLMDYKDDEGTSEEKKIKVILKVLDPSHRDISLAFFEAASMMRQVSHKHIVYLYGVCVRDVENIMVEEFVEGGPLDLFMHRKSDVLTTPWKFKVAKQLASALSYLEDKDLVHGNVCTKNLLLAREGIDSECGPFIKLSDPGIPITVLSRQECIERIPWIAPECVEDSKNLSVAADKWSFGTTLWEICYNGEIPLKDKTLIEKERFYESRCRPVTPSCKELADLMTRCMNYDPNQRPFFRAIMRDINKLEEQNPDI

JAK1/JAK3 = assay: IL-2-stimulated pSTAT5 in human whole blood; format: cell-based
Protocol: With respect to IL-2-stimulated JAK1/3 activation in human whole blood cells, whole blood (50 μL) was preincubated with compounds for 30 min and then stimulated with IL-2 (20 ng/mL) for 15 min.
The stimulations stated above were terminated with prewarmed Lyse/Fix Buffer (558,049; BD Biosciences, San Jose, CA, USA) for 10 min. Cells were stained with an anti-cluster of differentiation (CD)3 fluorescein isothiocyanate (FITC) antibody (required for PBMCs but not for the other cell types), washed, and permeabilized on ice using Perm III Buffer (558,050; BD Biosciences) prior to staining with an Alexa Fluor 647 anti-phosphorylated (p)STAT5 (pY694) antibody for 30 min and analyzed by flow cytometry. Phosphorylation of STAT5 was quantified by the median fluorescence intensity (MFI) after gating on the CD3-positive population.

Met ID in vitro = format: in vitro ADME, human
TYK2/JAK1 = assay: IL-23-induced pSTAT3 in human Th17 cells; format: cell-based
Protocol: Human naïve CD4^+ T cells were separated using a human naïve CD4^+ T-cell isolation kit (StemCell, #17,852), and then cells were stimulated with anti-CD3 monoclonal antibody and anti-CD28 monoclonal antibody for 7–10 days under the following Th17-skewing treatments: IL-6, IL-23, IL-1β and transforming growth factor-β. Half of the medium was replaced with fresh medium containing a stimulant to induce differentiation every other day. Th17 cells were incubated overnight at 37 °C for deactivation. Cells were reinoculated on 96-well plates and cocultured with gradient-diluted QL-1200186 for 1 h and then stimulated with recombinant human IL-23 (ACRO: #IL-B-H52 WS) for 0.5 h. Cells were collected, and phosphorylation of STAT3 was quantified according to the MFI.

JAK1 (JH1) = JAK1 (JH1) (Homo sapiens, UniProt P23458); assay: JH1 kinase assay, HTRF KinEASE-TK; format: biochemical
JAK1 (JH1), sequence (P23458 875-1153 limits assumed): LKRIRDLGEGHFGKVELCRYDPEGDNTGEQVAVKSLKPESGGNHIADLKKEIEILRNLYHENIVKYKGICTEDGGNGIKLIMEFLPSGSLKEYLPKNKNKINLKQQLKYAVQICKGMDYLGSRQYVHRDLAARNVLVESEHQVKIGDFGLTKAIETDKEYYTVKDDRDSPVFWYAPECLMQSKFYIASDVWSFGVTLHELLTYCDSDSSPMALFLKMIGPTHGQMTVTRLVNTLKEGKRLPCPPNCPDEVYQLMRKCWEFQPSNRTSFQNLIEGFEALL
Protocol: We measured the ability of a compound to bind to JAK1/2/3 and the TYK2 JH1 domain by using HTRF® KinEASE™-TK kits (Millipore, Bedford, MA, USA). […] Next, SA-XL665 and TK antibody-Eu3 were added to the detection buffer and incubated for 1 h at RT. The HTRF signal was measured on a plate reader (Envision).

CYP450 1A2 = CYP450 1A2 (Homo sapiens, UniProt P05177); format: in vitro ADME
CYP450 1A2, sequence (P05177 whole entry): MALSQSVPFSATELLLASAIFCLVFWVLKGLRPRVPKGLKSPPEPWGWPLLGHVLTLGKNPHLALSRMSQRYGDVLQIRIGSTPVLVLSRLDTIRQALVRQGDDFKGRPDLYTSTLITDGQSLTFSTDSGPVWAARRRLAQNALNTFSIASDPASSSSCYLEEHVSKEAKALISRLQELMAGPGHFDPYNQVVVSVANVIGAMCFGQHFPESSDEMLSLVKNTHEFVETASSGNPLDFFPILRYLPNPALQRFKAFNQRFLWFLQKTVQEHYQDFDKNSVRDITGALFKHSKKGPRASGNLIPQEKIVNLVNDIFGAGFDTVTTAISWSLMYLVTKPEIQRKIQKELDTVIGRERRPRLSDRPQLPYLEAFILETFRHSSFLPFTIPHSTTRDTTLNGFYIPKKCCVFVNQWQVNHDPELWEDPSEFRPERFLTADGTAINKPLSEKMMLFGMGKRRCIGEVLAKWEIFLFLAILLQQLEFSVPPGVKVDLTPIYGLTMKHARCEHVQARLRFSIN
Protocol: as §2

JAK2 (JH1), sequence (O60674 849-1124 limits assumed): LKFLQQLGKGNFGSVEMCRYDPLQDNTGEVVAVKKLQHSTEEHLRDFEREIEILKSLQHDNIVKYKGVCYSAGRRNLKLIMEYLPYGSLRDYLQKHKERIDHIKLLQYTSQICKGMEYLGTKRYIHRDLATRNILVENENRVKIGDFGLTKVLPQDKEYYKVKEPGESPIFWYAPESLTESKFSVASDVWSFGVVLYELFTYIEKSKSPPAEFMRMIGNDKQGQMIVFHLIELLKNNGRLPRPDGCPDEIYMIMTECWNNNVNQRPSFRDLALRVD

SMILES: CNC(=O)c1cnc2cc1Nc1cc(cc(-c3ccn(C)n3)c1OC)CCOCc1cccc(n1)N2 [QL-1200186, 5^6-methoxy-N-methyl-5^5-(1-methyl-1H-pyrazol-3-yl)-8-oxa-2,4-diaza-1(2,6),3(2,4)-dipyridina-5(1,3)-benzenacyclononaphane-3^5-carboxamide]
- IC50 (JAK2 (JH1)): > 9.9 µM
- Kinase assay (JH1) JAK2 IC50 (JAK2 (JH1)): did not show inhibitory activity
- IC50 (TYK2 JH1 domain): > 9.9 µM
- Kinase assay (JH1) TYK2 IC50 (TYK2 JH1 domain): did not show inhibitory activity
- IC50 (JAK3 (JH1)): > 9.9 µM
- Kinase assay (JH1) JAK3 IC50 (JAK3 (JH1)): did not show inhibitory activity
- IFNα-stimulated phosphorylation of TYK2 in Jurkat cells (TYK2): blocked IFNα-stimulated phosphorylation of TYK2 in Jurkat cells in a concentration-dependent manner
- IC50 (CYP450 2C19): 2.9 µM
- IC50 (CYP450 2C9): 6.4 µM
- IC50 (CYP450 2D6): > 50 µM
- IC50 (CYP450 3A4/5): > 50 µM
- psoriasis severity according to the thickness score ([1]; day 7): significantly alleviated psoriasis severity
- psoriasis-like inflammatory symptoms (erythema, scaling, thickening; PASI) ([1]; vs imiquimod group, p.o., b.i.d., n = 8): significantly improved psoriasis-like inflammatory symptoms
- TPO-pSTAT3/STAT5 in human whole blood (JAK2/JAK2) inhibition (JAK2/JAK2; @10μM): no inhibition @10μM
- activity in thrombopoietin (TPO)-induced JAK2/JAK2 signaling (JAK2/JAK2; human whole blood): no activity
- IC50 (JAK1 JH2 domain): 0.00985 µM
- activity in IL-2-mediated JAK1/JAK3 signaling (JAK1/JAK3): no activity
- specific human metabolites in vitro (Met ID) (Met ID in vitro): no specific human metabolites in vitro
- IC50 (TYK2/JAK1): 0.00103 µM
- IC50 (JAK1 (JH1)): > 9.9 µM
- Kinase assay (JH1) JAK1 IC50 (JAK1 (JH1)): did not show inhibitory activity
- IC50 (CYP450 1A2): > 50 µM
